# Experimental data taken from publication PMC4805166, “Synthetic Cyclolipopeptides Selective against Microbial, Plant and Animal Cell Targets by Incorporation of D-Amino Acids or Histidine” (PLoS ONE, 2016).
# Read-outs that look alike come from different tables or passages of the source. Where a SMILES comes first, the peptide text is derived from it. Side-chain parts run from the residue outwards. [ ]: non-standard residue; d: D form. The star is where a group is joined. Pentanoyl(4-Me) = CC(C)CCC(=O)*; Hexanoyl = CCCCCC(=O)*; Butyryl = CCCC(=O)*
# Experiments:
# [1] = system: X. axonopodis pv. vesicatoria; experiment: Bactericidal activity (killing assay); format: cell-based, Xanthomonas axonopodis pv. vesicatoria; conditions: 5 μM peptide, LB broth, aliquots every 30 min during 3 h, viable counts; triplicates
# Method: In a total volume of 5 mL, 4 mL of Luria-Bertani (LB) broth were mixed with 0.5 ml of a suspension of X. axonopodis pv. vesicatoria adjusted to 10^8 CFU mL^-1 and 0.5 mL of the peptide solution at 50 μM (final concentration at 5 μM). Aliquots of 500 μL were removed at 30-min intervals during 3 h and the appropriate dilutions were spread onto LB agar using a spiral plater (Eddy Jet; IUL instruments, Spain). Triplicates were performed and colonies were counted after 48 h of incubation at 25°C with an automatic counter (Flash and Go; IUL instruments, Spain) by incorporating the software CounterMat version 5.0.
# [2] = system: erythrocyte suspensions of horse blood; conditions: horse erythrocytes 5% vol/vol, TRIS buffer pH 7.2, 1 h at 37°C, absorbance 540 nm, relative to melittin 100 μM, ± confidence interval (α = 0.05); for Hemolysis (%) 150 µM: 150 µM peptide; for Hemolysis (%) 250 µM: 250 µM peptide;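 as to all read-outs here: Read-out is hemoglobin release into the supernatant, with a buffer-only blank subtracted as the 0% baseline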
# Method: Blood was centrifuged at 6000g for 5 min, washed three times with TRIS buffer (10 mM TRIS, 150 mM NaCl, pH 7.2) and diluted.
# Compounds were solubilized in TRIS buffer and mixed with horse erythrocytes and the final concentrations tested were 250 and 150 μM. The mixture was incubated under continuous shaking for 1 h at 37°C. Then, the tubes were centrifuged at 3500g for 10 min, 80 μL aliquots of the supernatant transferred to 100-well microplates (Bioscreen), diluted with 80 μL water, and the absorbance measured at 540 nm (Bioscreen). Complete hemolysis was obtained by the addition of melittin at 100 μM (Sigma-Aldrich Corporation, Madrid, Spain). The percentage of hemolysis (H) was calculated using the equation: H = 100×[(Op−Ob)/(Om−Ob)], where Op was the density for a given compound concentration, Ob for the buffer, and Om for the melittin positive control.
# [3] = system: Erwinia amylovora PMV6076; experiment: MIC, in vitro growth inhibition; format: cell-based; conditions: TSB, 25°C, 48 h, OD 600 nm; tested at 3.1, 6.2, 12.5, 25, 50 μM; three replicates, experiment repeated twice; MIC = lowest concentration with no growth
# Method in brief: (§1)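 Peptide dilutions (stocks 500–31.1 μM) mixed 1:10 with 10^8 CFU/mL bacterial suspension in TSB. Incubated 25 °C, OD600 read hourly for 48 h, triplicates, repeated twice. MIC: lowest concentration with no growth at end.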
# [4] = system: Fusarium oxysporum f. sp. lycopersici FOL 3 race 2; experiment: MIC, antifungal growth inhibition; format: cell-based
# Method in brief: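 Microconidia are grown on PDA at 25 °C and adjusted to 10^4 conidia/mL. Peptide stocks of 500, 250, 125, 62.5 and 31.1 µM (stock, not final) are mixed with conidia in double-concentrated PDB with 0.003% chloramphenicol, in triplicate, and incubated at 20 °C. OD600 is read every 2 h for seven days, and MIC is the lowest concentration with no growth at the end.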
# [5] = system: Xanthomonas axonopodis pv. vesicatoria 2133–2; format: cell-based; conditions: TSB, 25°C, 48 h, OD 600 nm; tested at 3.1, 6.2, 12.5, 25, 50 μM; three replicates, experiment repeated twice; MIC = lowest concentration with no growth
# Method in brief: as §1
# [6] = system: Pseudomonas syringae pv. syringae EPS94; format: cell-based; conditions: 48 h
# Method in brief: as §1
# [7] = system: E. amylovora, P. syringae pv. syringae, X. axonopodis pv. vesicatoria and F. oxysporum; format: cell-based; conditions: for MIC values over the pathogens tested: span of MIC values over the four pathogens; for Antimicrobial activity, in words: authors' overall judgement over the pathogens tested; for MIC against three pathogens: three of the four pathogens tested
# Method: The following plant pathogenic bacterial strains were used: Erwinia amylovora PMV6076 (Institut National de la Recherche Agronomique, Angers, France), Pseudomonas syringae pv. syringae EPS94 (Institut de Tecnologia Agroalimentària, Universitat de Girona, Spain) and Xanthomonas axonopodis pv. vesicatoria 2133–2 (Instituto Valenciano de Investigaciones Agrarias, Valencia, Spain). All bacteria were stored in Luria Bertani (LB) broth supplemented with glycerol (20%) and maintained at -80°C. Bacteria were scrapped from LB agar after growing for 24–48 h at 25°C. The cell material was suspended in sterile water to obtain a suspension of 10^8 CFU mL^-1.
# Fusarium oxysporum f. sp. lycopersici FOL 3 race 2 (ATCC 201829, American Type Culture Collection) was used as fungal pathogen. The strain was cultured on potato dextrose agar (PDA) plates (Difco) and microconidia were obtained after growth at 25°C. The concentration of conidia was determined using a hemacytometer and adjusted to 10^4 conidia mL^-1.
# Lyophilized peptides were solubilized in sterile Milli-Q water to a final concentration of 1 mM and filter sterilized through a 0.22-μm pore filter. For minimum inhibitory concentration (MIC) assessment, dilutions of the compounds were made to obtain a stock concentration of […]. For antibacterial activity twenty microlitres of each dilution were mixed in a microtiter plate well with 20 μL of the corresponding suspension of the bacterial indicator, 160 μL of Trypticase Soy Broth (TSB) (BioMèrieux, France) to a total volume of 200 μL. For antifungal activity 20 μL of each stock solution were mixed in a microtiter plate well with 80 μL of the corresponding suspension of the fungal pathogen and 100 μL of double concentrated PDB to a total volume of 200 μL containing 0.003% w/v of choramphenicol.
# Three replicates for each strain, compound and concentration were used. Microbial growth was determined by optical density measurement at 600 nm (Bioscreen C, Labsystem, Helsinki, Finland). For antibacterial activity microplates were incubated at 25°C with 20 sec shaking before hourly absorbance measurement for 48 h. For antifungal activity microplates were incubated at 20°C with 1 min shaking before absorbance measurement that were done every two hours during seven days. The experiment was repeated twice. The MIC was taken as the lowest compound concentration with no growth at the end of the experiment.
# [8] = PDB with 0.003% chloramphenicol, 20°C, seven days, OD 600 nm, tested at 3.1, 6.2, 12.5, 25, 50 μM, three replicates, repeated twice
Structure (SMILES),Bactericidal activity (kinetics of survival) [1],Hemolysis (%) 150 µM [2] [%],MIC Ea [3] [µM],"MIC Fo [4, 8] [µM]",MIC Xav [5] [µM],MIC Pss [6] [µM],MIC values over the pathogens tested [7] [µM],Hemolysis (%) 250 µM [2] [%],"Antimicrobial activity, in words [7]",MIC Fo [4] [µM],MIC against three pathogens [7] [µM]
"CCCC(=O)N[C@@H](CCCCN)C(=O)N[C@@H](CC(C)C)C(=O)NCCCC[C@@H]1NC(=O)[C@H](CCCCN)NC(=O)[C@H](CC(C)C)NC(=O)[C@H](CCCCN)NC(=O)[C@H](CCCCN)NC(=O)[C@H](CCC(N)=O)NC(=O)[C@H](CC(C)C)NC(=O)[C@H](CCCCN)NC(=O)[C@H](CCCCN)NC(=O)[C@H](Cc2c[nH]cn2)NC1=O [BPC728, c(KKLKK(LK-CO-C3H7)HKKLQ)] (cyclo(HKKLQKKLKK([Leu-Lys-Butyryl])))",bactericidal activity,0,>50,<3.1,6.2 to 12.5,12.5 to 25,,,,,
CCCCCC(=O)NCCCC[C@@H]1NC(=O)[C@H](CCC(N)=O)NC(=O)[C@H](CC(C)C)NC(=O)[C@H](CCCCN)NC(=O)[C@H](CCCCN)NC(=O)[C@H](Cc2ccccc2)NC(=O)[C@H](CCCCN)NC(=O)[C@H](CCCCN)NC(=O)[C@H](CC(C)C)NC(=O)[C@H](CCCCN)NC1=O [BPC590] (cyclo(FKKLQK(Hexanoyl)KLKK)),,100 ± 9,6.2 to 12.5,12.5 to 25,3.1 to 6.2,6.2 to 12.5,3.1 to 25,,,,
"CCCCCC(=O)N[C@@H](CCCCN)C(=O)N[C@@H](CC(C)C)C(=O)NCCCC[C@@H]1NC(=O)[C@H](CCCCN)NC(=O)[C@H](CC(C)C)NC(=O)[C@H](CCCCN)NC(=O)[C@H](CCCCN)NC(=O)[C@H](CCC(N)=O)NC(=O)[C@H](CC(C)C)NC(=O)[C@H](CCCCN)NC(=O)[C@H](CCCCN)NC(=O)[C@H](Cc2c[nH]cn2)NC1=O [BPC676, c(KKLKK(LK-CO-nC5H11)HKKLQ)] (cyclo(HKKLQKKLKK([Leu-Lys-Hexanoyl])))",bactericidal activity,3 ± 0.3,25 to 50,3.1 to 6.2,6.2 to 12.5,12.5 to 25,,,,,
"CCCCCC(=O)NCCCC[C@@H]1NC(=O)[C@H](CCC(N)=O)NC(=O)[C@H](CC(C)C)NC(=O)[C@H](CCCCN)NC(=O)[C@H](CCCCN)NC(=O)[C@@H](Cc2ccccc2)NC(=O)[C@H](CCCCN)NC(=O)[C@H](CCCCN)NC(=O)[C@H](CC(C)C)NC(=O)[C@H](CCCCN)NC1=O [BPC686, c(K(CO-nC5H11)KLKKfKKLQ)] (cyclo(K(Hexanoyl)KLKK[dF]KKLQ))",bactericidal activity,10 ± 0.2,25 to 50,12.5 to 25,6.2 to 12.5,12.5 to 25,,14 ± 0.4,,,
"CCCCCC(=O)N[C@@H](CCCCN)C(=O)N[C@@H](CC(C)C)C(=O)NCCCC[C@@H]1NC(=O)[C@H](CCCCN)NC(=O)[C@H](CC(C)C)NC(=O)[C@H](CCCCN)NC(=O)[C@H](CCCCN)NC(=O)[C@H](CCC(N)=O)NC(=O)[C@H](CC(C)C)NC(=O)[C@H](CCCCN)NC(=O)[C@H](CCCCN)NC(=O)[C@H](Cc2ccccc2)NC1=O [BPC596, c(KKLKK(LK-CO-nC5H11)FKKLQ)] (cyclo(FKKLQKKLKK([Leu-Lys-Hexanoyl])))",,93 ± 5,12.5 to 25,12.5 to 25,<3.1,6.2 to 12.5,,100 ± 11,important antimicrobial activity,,
CC(C)C[C@@H]1NC(=O)[C@H](CCCCN)NC(=O)[C@H](CCCCN)NC(=O)[C@H](CCC(N)=O)NC(=O)[C@H](CC(C)C)NC(=O)[C@H](CCCCN)NC(=O)[C@H](CCCCN)NC(=O)[C@H](Cc2ccccc2)NC(=O)[C@H](CCCCN)NC(=O)[C@H](CCCCN)NC1=O [BPC194] (cyclo(FKKLQKKLKK)),,4 ± 1,6.2 to 12.5,<3.1,3.1 to 6.2,3.1 to 6.2,,,high antimicrobial activity,< 3.1,
"CCCC(=O)NCCCC[C@@H]1NC(=O)[C@H](CCCCN)NC(=O)[C@H](CCC(N)=O)NC(=O)[C@H](CC(C)C)NC(=O)[C@H](CCCCN)NC(=O)[C@H](CCCCN)NC(=O)[C@@H](Cc2ccccc2)NC(=O)[C@H](CCCCN)NC(=O)[C@H](CCCCN)NC(=O)[C@H](CC(C)C)NC1=O [BPC714, c(KK(CO-C3H7)LKKfKKLQ)] (cyclo(KK(Butyryl)LKK[dF]KKLQ))",bactericidal activity,3 ± 1,25 to 50,6.2 to 12.5,12.5 to 25,25 to 50,,3 ± 0.5,,,
"CCCCCC(=O)NCCCC[C@@H]1NC(=O)[C@H](CCCCN)NC(=O)[C@H](CC(C)C)NC(=O)[C@H](CCCCN)NC(=O)[C@H](CCCCN)NC(=O)[C@H](CCC(N)=O)NC(=O)[C@H](CC(C)C)NC(=O)[C@H](CCCCN)NC(=O)[C@H](CCCCN)NC(=O)[C@H](Cc2ccccc2)NC1=O [BPC528, c(KKLKK(CO-nC5H11)FKKLQ)] (cyclo(FKKLQKKLKK(Hexanoyl)))",,98 ± 7,12.5 to 25,6.2 to 12.5,3.1 to 6.2,6.2 to 12.5,3.1 to 25,,,,< 12.5
"CCCCCC(=O)NCCCC[C@H]1NC(=O)[C@H](CCCCN)NC(=O)[C@H](CC(C)C)NC(=O)[C@H](CCCCN)NC(=O)[C@H](CCCCN)NC(=O)[C@H](CCC(N)=O)NC(=O)[C@H](CC(C)C)NC(=O)[C@H](CCCCN)NC(=O)[C@H](CCCCN)NC(=O)[C@@H](Cc2ccccc2)NC1=O [BPC632, c(KKLKk(CO-nC5H11)fKKLQ)] (cyclo(KKLK[dK](Hexanoyl)[dF]KKLQ))",,21 ± 13,25 to 50,12.5 to 25,25 to 50,12.5 to 25,,22 ± 10,low active,,
"CC(C)CCC(=O)NCCCC[C@@H]1NC(=O)[C@H](CCCCN)NC(=O)[C@H](CC(C)C)NC(=O)[C@H](CCCCN)NC(=O)[C@H](CCCCN)NC(=O)[C@H](CCC(N)=O)NC(=O)[C@H](CC(C)C)NC(=O)[C@H](CCCCN)NC(=O)[C@H](CCCCN)NC(=O)[C@H](Cc2ccccc2)NC1=O [BPC504, c(KKLKK(CO-isoC5H11)FKKLQ)] (cyclo(FKKLQKKLKK(Pentanoyl(4-Me))))",,89 ± 2,12.5 to 25,3.1 to 6.2,3.1 to 6.2,6.2 to 12.5,,,,,< 12.5
